Melting point data for 64 molecules are collected here from a melting point compilation (Tetko et al.; mined from patent text by program, amines drawn as free bases though some values may be those of a salt).

Consider `C=CCn1cnnc1-c1c(Cl)c(Cl)cc2nc(OC)c(OC)nc12`, for which the melting point was in the range of 206 to 208 °C.

On to `CCOC(=O)Cn1c(=O)c(=O)[nH]c2ccc3ccc(-n4ccc(CNC(=O)c5ccccc5)c4)cc3c21`, for which the melting point is greater than 250 °C.

`COC(=O)CCNC(=O)COc1ccc2c(c1)CC(NS(=O)(=O)c1ccc(Cl)cc1)C2` (centres undefined) had a melting point of 126 to 128 °C.

`Cc1cccc(OS(=O)(=O)c2ccc(N3CCN(C)C3=O)cc2)c1`: the melting point fell in the range of 123 to 125 °C.

Regarding `Cc1ccc(-c2ccc(S(C)(=O)=O)cc2)n1-c1ccc(-c2cccs2)cc1`, the melting point lay within 185 to 186 °C.

`CCCCn1c(=O)c2c(nc(C)n2S(=O)(=O)c2ccc(C)cc2)n(CCCC)c1=O` showed a melting point of 111 to 113 °C.

`N#Cc1cc(-n2cnnc2)cc(C(F)(F)F)c1N` yielded a melting point of 283 °C.

Take `Cc1ccc(C2COc3c(C)c(C)cc(C)c32)nc1` (centres undefined): the melting point lay in the range of 69 to 70 °C.

On to `Cc1ccc([N+](=O)[O-])c(C)c1[N+](=O)[O-]`, for which the melting point lay in the range of 81 to 83 °C.

The molecule `CC1(C)C=C(C(=O)NCC2COC(C)(C)O2)C(C)(C)N1` (centres undefined) came in with a melting point of 55 to 57 °C.

On to `CN(C)c1nc2sc3c(NCc4cccnc4)ncnc3c2c2c1CCC2(C)C`, for which the melting point lay in the range of 237 to 238 °C.

In turn, `CC(C)OC(=O)CCc1nc(-c2ccc(Cl)cc2)co1` gave a melting point of 30 to 31 °C.

As to `CC(=O)Nc1ccc(F)cc1OCCOc1ccc(N)cc1F`, the melting point is 134 to 136 °C.

As to `C#Cc1ccnc(-c2cc(N)c(C#Cc3ccc(C(C)=S)cc3)cc2[N+](=O)[O-])c1`, the melting point is 185 to 188 °C.

Molecule `Cc1ncc(C(=O)N2CCCCC2)s1` registered a melting point of 68.7 °C.

The molecule `COC(=O)COc1ccc(C=O)cc1OC` gave a melting point of 91 to 93 °C.

In the case of `C=CC[C@H]1CC(C(=O)OC)=C[C@H](N=[N+]=[N-])[C@H]1OS(C)(=O)=O`, the melting point fell in the range of 70 to 72 °C.

`O=C(Nc1cccc([N+](=O)[O-])c1)NC1C(=O)N(CC23CC4CC(CC(C4)C2)C3)c2ccccc2N(c2ccccc2)C1=O` (centres undefined) showed a melting point of 213 to 215 °C.

`C#CCNC1=NS(=O)(=O)N=C1NCCSCc1nc[nH]c1C`: the melting point was 82 to 103 °C.

`COC(=O)C(=NO)C(=O)N1CCC(c2ccc(OC)c(OC3CCCC3)c2)CC1` showed a melting point of 159 to 160 °C.

`O=C=Nc1cc([N+](=O)[O-])c(Cl)cc1F` returned a melting point of 43 to 46 °C.

In the case of `CCCOCCOc1cccc2oc(C(=O)N3CCN(C)CC3)cc(=O)c12`, the melting point lay in the range of 78 to 80 °C.

Regarding `CCN(CC)C(=O)c1cc(-c2ccccc2)c2ccccc2c1`, the melting point lay in the range of 123 to 124 °C.

`CCOc1ccccc1N1CCN(C(=O)Nc2nc3ccccc3nc2OCC)CC1` showed a melting point of 120 to 122 °C.

For the molecule `Cc1nc(N)sc1-c1cccnc1`, the melting point is 190 to 191 °C.

`Cc1csc(NC(=O)c2ccc(CN3CCN(c4nc(C)cs4)C3=O)cc2)n1` returned a melting point of 197 to 198 °C.

In the case of `O=C(c1ccc(F)c(Cc2ccc(=O)[nH]n2)c1)c1c(Cl)cc(Cl)cc1Cl`, the melting point is 185 °C.

Molecule `COc1ccc(Cn2c3ccccc3c3c(N)c(C(=O)O)c(C)nc32)cc1` yielded a melting point of 206 to 208 °C.

`O=C(Nc1ccc2ccc(Oc3ccccc3)nc2n1)C1=CCC=CC1` came in with a melting point of 95 °C.

`Cc1ccc(NCCSC#N)c([N+](=O)[O-])c1` displayed a melting point of 123 to 125 °C.

Molecule `Oc1cccc2c1CCCC2CN1CCCCC1` (centres undefined) had a melting point of 129 to 131 °C.

`Cc1ccc(N2CCN(Cc3c[nH]c4ncccc34)CC2)nc1` gave a melting point of 204 to 205 °C.

Molecule `CC1(C)CCCC(C)(C)N1Oc1ccc(C(F)(F)F)cc1[N+](=O)[O-]` yielded a melting point of 54 to 55 °C.

The molecule `OCC1OC(n2cnc3c(NCc4ccccc4Cl)ncnc32)C(O)C1O` (centres undefined) returned a melting point of 182 to 183 °C.

`Cc1cc(Nc2cccc(C(F)(F)F)c2)nc(-n2nc(C)cc2C)n1` showed a melting point of 130 to 134 °C.

Regarding `CSc1nn2c(N3CCOCC3)cc(C)nc2c1S(=O)(=O)c1ccccc1`, the melting point is 206 to 208 °C.

In turn, `COc1ccc(C=CC2=NN(C(C)=O)C(C)Cc3cc(OC)c(OC)cc32)c(OC)c1` (centres undefined) showed a melting point of 85 to 87 °C.

Regarding `O=C(Nc1ccccc1-c1nc2cccnc2o1)c1ccccc1`, the melting point was 197 to 198 °C.

The molecule `O=C1CCCc2cc3c(cc21)sc1ccccc13` showed a melting point of 160 to 165 °C.

With `CCC(C)n1cc(Cl)nc(N2CCc3cc(Br)cc(Cl)c32)c1=O` (centres undefined), the melting point was 150 °C.

In the case of `Fc1ccc(CN2CCN(C3CC=C(c4ccc(C(F)(F)F)cc4)CC3)CC2)cc1` (centres undefined), the melting point fell in the range of 108 to 109 °C.

Molecule `COc1cc(O)cc2c1C(Br)=C(c1ccc(O)cc1)C2=O` registered a melting point of 210 °C.

Molecule `N#CCCCSc1nccc(N)n1` came in with a melting point of 99 to 100 °C.

With `Cc1c(F)c(N2CCC(n3cc(-c4ccccc4)nn3)C2)c(F)c2c1c(=O)c(C(=O)O)cn2C1CC1` (centres undefined), the melting point turned out to be 221 °C.

Consider `CC(C)(C)c1nc(/C=C/c2cn(-c3ccccc3)nc2O)cs1`, for which the melting point was in the range of 209 to 211 °C.

In turn, `O=C1CNC(=S)N1c1ccc2nc(S)sc2c1` gave a melting point greater than 266 °C.

`CC(C)C1(C)Cc2cc(OCC#N)c(Cl)c(Cl)c2C1=O` (centres undefined) gave a melting point of 133 °C.

`COc1ccc2cc([C@H](C)C(=O)OCCNC(=O)OC(C)(C)C)ccc2c1` showed a melting point of 82 to 84 °C.

Turning to `CNc1cc(C=O)cc(S(N)(=O)=O)c1Oc1ccccc1`, the melting point was in the range of 166 to 167 °C.

On to `CCn1c2ccccc2c2cc(NC(=O)c3ccccc3C(F)(F)F)ccc21`, for which the melting point was in the range of 206 to 207 °C.

Take `COc1ccc(C2CCS(=O)(=O)C2)cc1OC1CCCC1` (centres undefined): the melting point was 89 to 90 °C.

`Cc1cc(C(O)C(=O)c2ccccc2)c(C)c(C)c1C` (centres undefined) yielded a melting point of 99 to 101 °C.

As to `CCCCCN(C)C(=O)c1ccc(Cl)nn1`, the melting point lay within 98 to 101 °C.

Consider `CCc1nc(COc2ccc(NC(=O)/C=C/c3cnn(C)c3-c3ccc(F)cc3)cc2)cs1`, for which the melting point was 98 to 99 °C.

`CCN(CC)CCCN1C(=O)NC(Cc2c[nH]c3ccc(OC)cc23)C1=O` (centres undefined): the melting point worked out at 136 °C.

Turning to `CCOCc1nc2c(N)nc3ccccc3c2n1CCOCC#Cc1ccccc1`, the melting point lay within 111 to 112 °C.

The molecule `CC(=O)N[C@@H](CSC(=O)C(C)(C)C)C(=O)NCCSC(=O)C(C)C` yielded a melting point of 103 to 104 °C.

`COc1cccc(OC(=O)N2CCCC2=O)c1` registered a melting point of 45 to 47 °C.

For `OC1c2cc(OCc3ccccn3)ccc2OCC1Cc1cccnc1` (centres undefined), the melting point lay within 108 to 110 °C.

Consider `OC(Cn1cncn1)(Cn1ncnc1C=Cc1ccc(Cl)cc1)c1ccc(Cl)cc1Cl` (centres undefined), for which the melting point fell in the range of 193 to 196 °C.

`Cn1ccnc1Sc1c(Cl)cccc1Cl` yielded a melting point of 113 to 115 °C.

For `CCC(=O)NS(=O)(=O)c1ccc(C2=C(c3ccccc3)C(=O)C(C)(C)O2)cc1Cl`, the melting point lay within 191 to 192 °C.

On to `COc1cc(CNc2n[nH]c3ncnc(Nc4cccc(Cl)c4)c23)cc(OC)c1OC`, for which the melting point was 240 to 245 °C.

Molecule `N#Cc1ccc(OCCNC(=O)C2Cc3ccccc3N2S(=O)(=O)c2ccc(-c3cccc(C(F)(F)F)c3)cc2)cc1` (centres undefined) returned a melting point of 70 to 80 °C.

A word on the melting point: it is the temperature, or range, at which the solid turns liquid.
